1 compound from patent publication US9199940B2, “Crystalline forms and processes for the preparation of phenyl-pyrazoles useful as modulators of the 5-HT2A serotonin receptor” (Arena Pharmaceuticals, Inc., priority 2006, dated 2015) can be followed below.

The nature of this data set: dynamic vapor sorption (DVS) scan of crystalline forms. Type of data set: physicochemical. The following applies: up to 95% relative humidity. An excerpt:
FIG. 4 depicts a dynamic vapor sorption (DVS) scan for crystalline Form I of Compound 7 of the invention (VTI dynamic vapor sorption analyzer).
FIG. 8 depicts a dynamic vapor sorption (DVS) scan for crystalline Form I Compound 9 of the invention (VTI dynamic vapor sorption analyzer).

Take `COc1cccc(C(=O)Nc2ccc(OCCN3CCOCC3)c(-c3ccnn3C)c2)c1` [Compound 7 Form I, 4-(2-(4-(3-methoxybenzamido)-2-(1-methyl-1H-pyrazol-5-yl)phenoxy)ethyl)morpholin-4-ium chloride]: the DVS hygroscopicity entry is on record as “FIG. 4: Non-hygroscopic;”.
